“Also recorded” adds a separate entry of the source.
Key:
[1] = molecular target: T1, TLR7 (Mus musculus, UniProt P58681); test: In vitro cytokine induction in murine macrophages (RAW264.7, BMDM), ELISA; type: cell-based; design: endogenous in cells; host or cells: RAW264.7 (ATCC); primary BMDM from C57BL/6 mice; details: for potency compared to the unconjugated TLR7 (SM): ELISA; for potency of cytokine induction in comparison to the unmodified TLR7 agonist: in vitro and in vivo
T1 sequence (P58681 27-1050): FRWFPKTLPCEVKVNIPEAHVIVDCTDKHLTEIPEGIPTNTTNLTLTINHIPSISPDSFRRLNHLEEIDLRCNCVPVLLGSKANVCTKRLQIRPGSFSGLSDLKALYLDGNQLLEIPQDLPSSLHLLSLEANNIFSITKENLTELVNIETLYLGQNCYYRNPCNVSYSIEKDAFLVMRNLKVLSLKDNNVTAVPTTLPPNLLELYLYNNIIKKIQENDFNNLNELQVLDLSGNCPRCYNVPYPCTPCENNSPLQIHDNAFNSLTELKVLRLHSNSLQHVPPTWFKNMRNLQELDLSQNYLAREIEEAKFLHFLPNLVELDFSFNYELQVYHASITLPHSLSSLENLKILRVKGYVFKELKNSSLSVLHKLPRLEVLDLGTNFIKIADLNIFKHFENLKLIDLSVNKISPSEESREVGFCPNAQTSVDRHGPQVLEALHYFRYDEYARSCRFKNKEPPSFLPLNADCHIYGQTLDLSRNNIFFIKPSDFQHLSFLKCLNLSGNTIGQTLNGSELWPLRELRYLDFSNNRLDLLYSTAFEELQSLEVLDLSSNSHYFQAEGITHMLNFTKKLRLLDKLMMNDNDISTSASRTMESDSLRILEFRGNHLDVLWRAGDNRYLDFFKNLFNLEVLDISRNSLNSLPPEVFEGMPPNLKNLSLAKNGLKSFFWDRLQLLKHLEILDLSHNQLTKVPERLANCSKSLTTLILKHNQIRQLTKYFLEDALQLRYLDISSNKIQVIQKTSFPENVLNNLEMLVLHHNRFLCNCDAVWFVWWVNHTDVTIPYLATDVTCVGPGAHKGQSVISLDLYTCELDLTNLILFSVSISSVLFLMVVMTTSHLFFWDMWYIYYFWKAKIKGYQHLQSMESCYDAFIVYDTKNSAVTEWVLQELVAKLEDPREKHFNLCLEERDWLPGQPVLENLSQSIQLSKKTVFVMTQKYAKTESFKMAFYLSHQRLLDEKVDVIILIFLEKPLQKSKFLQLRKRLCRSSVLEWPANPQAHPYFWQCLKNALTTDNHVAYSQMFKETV
Protocol: In vitro measurements of cytokine induction were performed using the mouse leukemic monocyte macrophage cell line, RAW264.7. […] BMDM were prepared from C57BL/6 and TLR7 deficient mice as described in Wu, C. C et al., (2007) “Immunotherapeutic activity of a conjugate of a Toll-like receptor 7 ligand”, Proc Natl Acad Sci USA 104, 3990-5.
In general, RAW264.7 cells or BMDM were incubated with various concentrations of conjugates for 18 hours at 37° C., 5% CO2 and culture supernatants were collected. The levels of cytokines (IL-6, IL-12 or TNF-α in the supernatants were determined by ELISA (BD Biosciences Pharmingen, La Jolla, Calif.) (Cho, H. J et al., “Immunostimulatory DNA-based vaccines induce cytotoxic lymphocyte activity by a T-helper cell-independent mechanism” [see comments], Nat Biotechnol 18, 509-14 (2000)), and the results presented in FIG. 2A-D. Data are mean±SEM of triplicates and are representative of three independent experiments. Minimum detection levels of these cytokines were 15 pg/mL.
TNFα levels were measured (see FIG. 2A) by incubating approximately 1×10^6/mL RAW 264.7 cells with the various conjugates or controls, as described above. IL-6 and IL12 levels were measured (see FIG. 2B-D) by incubating 0.5×10^6/mL BMDM with the various conjugates or controls, as described above.
Using a similar assay, the in vitro potency of the lipid-TLR agonist conjugates (FIG. 1, compound 6), PEG-TLR7 agonist conjugates (FIG. 1, compound 8), and PEG-lipid (FIG. 1, compound 9) conjugates were compared using a murine macrophage cell line, RAW264, and primary bone marrow derived macrophages (BMDM). The respective cells were stimulated for 18 hours with serially diluted TLR7 conjugates and the levels of cytokines released in the media were measured by ELISA and compared to the unconjugated TLR7 agonist (SM) (see FIG. 2A, panels A-D).

[2] = test system: C57BL/6 mice immunized with ovalbumin (OVA); test: Adjuvanticity: subcutaneous immunization with OVA mixed with TLR7 conjugates; type: in vivo, mouse
Protocol: Each ELISA plate contained a titration of a previously quantitated serum to generate a standard curve. […] The various sera samples were tested at a 1:100 dilution.
Spleenocytes were prepared from the harvested spleens.
The efficiency of adjuvanticity was assessed by measurement of the levels and isotypes of the antigen-specific IgG that the vaccine induces, in particular IgG1 and IgG2 (Mosmann, T. R., and Coffman, R. L., ‘TH1 and TH2 cells: different patterns of lymphokine secretion lead to different functional properties’, Annual Review Immunology 7:145-73 (1989)). The groups of C57BL/6 mice (n=5 animals per group) were subcutaneously immunized with OVA (ovalbumin) mixed with TLR7 conjugates. […] Mice immunized with saline or OVA plus vehicle (0.1% DMSO) were used as negative controls.

[3] = test system: C57BL/6 mice; test: In vivo evaluation of adverse effects of TLR7 conjugates; details: 10 nmoles per mouse with OVA
Protocol: Immunological reaction initiation (e.g. adjuvanticity) by TLR7 conjugates was also examined. Groups (n=5) of C57BL/6 mice were subcutaneously immunized with 20 μg ovalbumin (OVA) mixed with approximately 10 nmol of various TLR7 conjugates, on days 0 and 7, where 10 nmol is a dosage target for the TLR7 portion of the conjugate, and the actual amount will be dependent on the actual chemical formula of each conjugate. […] Sera were collected on days 0, 7, 14, 21, 28, 42 and 56. Mice immunized with saline or OVA mixed with vehicle served as controls. Mice were sacrificed on day 56 and the spleens were harvested for preparation of splenocytes and histological slides. Approximately 200 microliters of a 2.5×10^6/mL spleen cell stock were aliquoted into round-bottom tissue culture microtiter plates in triplicate in a total volume of 200 μl RPMI 1640 complete medium [RPMI1640 (Irvine Scientific, Irvine, Calif.) supplemented with 10% heat-inactivated FCS, 2 mM L-glutamine, and 100 U/mL penicillin/100 μg/mL streptomycin] and restimulated with either 100 μg/mL OVA or medium alone. […] Sections 5 μm thick were stained with hematoxylin and eosin (H&E) and evaluated under the microscope. […]
Therefore, as part of the experimental protocol, body weight and skin reaction (at site of injection) of the mice immunized, with lipid-TLR7 agonist conjugates, was monitored. […]

[4] = Solubility observations; type: physicochemical
[5] = test system: C57BL/6 mice; test: Serum transferred arthritis (K/BxN serum); type: in vivo, mouse
Protocol: The anti-inflammatory efficacy of TLR7 agonist-PEG conjugates was tested in mouse models of human inflammatory diseases (serum transfer arthritis, experimental allergic encephalomyelitis (EAE) (see above), and thioglycollate induced peritonitis).

[6] = test system: C57BL/6 mice; test: Thioglycolate induced peritonitis (peritoneal neutrophil infiltration); details: for cell infiltration, particularly neutrophil, to the peritoneal cavity: three days
Protocol: Peritoneal cells were collected four hours after TG injection. Total cells were counted by haematocytometer and neutrophils were morphologically identified.
4 hours post TG injection total peritoneal cells were harvested and counted. Neutrophils were identified morphologically and counted.
One day after the last treatment, mice received intraperitoneal injection of 2 ml thioglycollate medium. […] Three hours after the thioglycollate injection, neutrophil infiltration to the peritoneum was evaluated.

[7] = test system: C57BL/6 mice; test: MOG induced experimental autoimmune encephalomyelitis (EAE)
Protocol: The effect of compound (8) on experimental autoimmune encephalomyelitis (EAE) was determined using C57BL/6 mice treated with myelin oligodendrocyte glycoprotein (MOG).
Treatment with MOG (or MOG peptides) may be used to induce EAE. Mice were treated with MOG protein for 6 days. On day 6 and onward (see FIG. 8), 50 nmoles of compound (8) or PBS were intravenously (i.v.) injected everyday. EAE clinical scores were used as a clinical metric for demyelination and were determined visually.
MOG protein was also used to evaluate potential adverse effect of various TLR7 conjugates, as described above. Evaluation of the results were by observation of various symptoms associated with MOG induced EAE (e.g., brain inflammation, demyelination of neurons and the like).

[8] = 50 nmoles i.v. for three days before thioglycolate

potency as a cytokine inducer compared to the unconjugated agonist ([1]; normalized to the molar level of the unconjugated agonist, RAW264, BMDM, 18 hours) [fold]	dissolution in suitable solvents for testing [4]	potency of cytokine induction in comparison to the unmodified TLR7 agonist [1]	solubility in aqueous solution [4]	SMILES	onset of induction of anti-OVA antibodies ([2]; OVA mixed with conjugate, s.c., days 0 and 7) [days]	OVA-specific IFNγ secretion by spleen cells ([2]; day 56 splenocytes restimulated with OVA)	anti-OVA IgG2a levels ([2]; serum, ELISA, days 0-56)	average body weights versus mice injected saline [3]	potency compared to the unconjugated TLR7 (SM) ([1]; RAW264, BMDM, 18 hours)	Th1 response (IgG2a levels) ([2]; mouse, in vivo)	Th2 immune response (IgG1 levels) ([2]; mouse, in vivo)	paw swelling ([5]; daily gavage)	paw swelling ([5]; daily subcutaneous injection)	neutrophils recruited to the peritoneum [6, 8]	total cells recruited to the peritoneum [6, 8]	adverse reaction compared to TG ([6]; mouse, in vivo)	cell infiltration, particularly neutrophil, to the peritoneal cavity ([6]; oral route)	cell infiltration, particularly neutrophil, to the peritoneal cavity ([6]; systemic (intravenous) route)	EAE clinical score / severity of symptoms ([7]; 50 nmoles i.v. every day from day 6, days 11-17)	adverse reaction ([7]; mouse, in vivo)
10	difficulty in dissolution	–	–	CCCCCCCC/C=C\CCCCCCCC(=O)OCC(COP(=O)(O)OCCNC(=O)c1ccc(Cn2c(=O)[nH]c3c(N)nc(OCCOC)nc32)cc1)OC(=O)CCCCCCC/C=C\CCCCCCCC (stereo not shown) [Compound 6, 2-(4-((6-amino-2-(2-methoxyethoxy)-8-oxo-7H-purin-9(8H)-yl)methyl)benzamido)ethyl 2,3-bis(oleoyloxy)propyl phosphate]	14	enhanced	continuously increased; also recorded: rapid elevation; also recorded: sustained and further accelerated levels	No significant differences	–	–	–	–	–	–	–	–	–	–	–	–
–	–	restored	–	CCCCCCCC/C=C\CCCCCCCC(=O)OCC(COP(=O)(O)OCCNC(=O)CCc1cn(CCOCCOCCOCCOCCOCCOCCOCCOCCOCCOCCNC(=O)c2ccc(Cn3c(O)nc4c(N)nc(OCCOC)nc43)cc2)nn1)OC(=O)CCCCCCC/C=C\CCCCCCCC (stereo not shown) [Compound 9, 2-(3-(1-(1-(4-((6-amino-8-hydroxy-2-(2-methoxyethoxy)-9H-purin-9-yl)methyl)phenyl)-1-oxo-5,8,11,14,17,20,23,26,29,32-decaoxa-2-azatetratriacontan-34-yl)-1H-1,2,3-triazole-4-yl)propanamido)ethyl 2,3-bis(oleoyloxy)propyl phosphate]	–	–	–	–	restored their potency to the similar level of the unconjugated TLR7 (SM)	minimal Th1 response	induce a Th2 immune response	–	–	–	–	–	–	–	–	–
–	–	attenuated	improves dramatically	COCCOc1nc(N)c2nc(O)n(Cc3ccc(C(=O)NCCOCCOCCOCCOCCOCCOCCOCCOCCOCCOCCn4cc(CCC(=O)O)nn4)cc3)c2n1 [Compound 8, 3-(1-(1-(4-((6-amino-8-hydroxy-2-(2-methoxyethoxy)-9H-purin-9-yl)methyl)phenyl)-1-oxo-5,8,11,14,17,20,23,26,29,32-decaoxa-2-azatetratriacontan-34-yl)-1H-1,2,3-triazol-4-yl)propanoic acid]	–	–	–	–	less potency	–	–	reduced paw swelling	reduced paw swelling	reduction	reduction	no additional adverse reaction	reduced cell infiltration	reduced cell infiltration	significantly reduces the severity of EAE symptoms	no additional adverse reaction
